The subject of test [1] is RS4;11 cells. The experiment in a line: Cell proliferation assay (MTS), RS4;11 cells, 72 h. The class given is cell-based. The procedure, abridged:
(§1)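 Treatment lasts 72 h for RS4;11 and 120 h for DOHH2 cells seeded at 5000 per well in serum-containing RPMI-1640. A 2 h MTS step, halted with 10% SDS, precedes dual-wavelength absorbance reading and IC50 fitting.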

Test [2] deals with DOHH2 cells. The experiment in a line: Cell proliferation assay (MTS), DOHH2 cells, 120 h. Format: cell-based. The procedure, abridged: as §1

Like-named read-outs stand apart in the source and are kept apart here.

Regarding `CC1(C)CCC(CN2CCN(c3ccc(C(=O)NS(=O)(=O)c4cc5c(c([N+](=O)[O-])c4)N[C@H](CCN4CCS(=O)(=O)CC4)CO5)c(Oc4cnc5[nH]ccc5c4)c3)CC2)=C(c2ccc(Cl)cc2)C1` [Example 2-126, (R)-2-((1H-pyrrolo[2,3-b]pyridin-5-yl)oxy)-4-(4-((4′-chloro-5,5-dimethyl-3,4,5,6-tetra-hydro-[1,1′-biphenyl]-2-yl)methyl)piperazin-1-yl)-N-((3-(2-(1,1-dioxidothiomorpholino)ethyl)-5-nitro-3,4-dihydro-2H-benzo[b] [1,4]oxazin-7-yl)sulfonyl)benzamide], the half-inhibitory concentration (IC50) (usually the midpoint of a concentration-inhibition curve) in test [1] (Homo sapiens, RS4-11, 72 h) is 5 nM; in test [2] (Homo sapiens, DOHH-2, 120 h) it was 11 nM.

Take `CN1CCC([C@H]2COc3cc(S(=O)(=O)NC(=O)c4ccc(N5CCN(CC6=C(c7ccc(Cl)cc7)CC(C)(C)CC6)CC5)cc4Oc4cnc5[nH]ccc5c4)cc([N+](=O)[O-])c3N2)CC1` [Example 2-233, (S)-2-((1H-pyrrolo[2,3-b]pyridin-5-yl)oxy)-4-(4-((4′-chloro-5,5-dimethyl-3,4,5,6-tetra-hydro-[1,1′-biphenyl]-2-yl)methyl)piperazin-1-yl)-N-((3-(1-methylpiperidin-4-yl)-5-ni-tro-3,4-dihydro-2H-benzo[b][1,4]oxazin-7-yl)sulfonyl)benzamide]: the IC50 in test [1] (Homo sapiens, RS4-11, 72 h) was 17 nM; in test [2] (Homo sapiens, DOHH-2, 120 h) it was 13 nM.

With `C[C@H]1CNc2c(cc(S(=O)(=O)NC(=O)c3ccc(N4CCN(CC5=C(c6ccc(Cl)cc6)CC(C)(C)CC5)CC4)cc3Oc3cnc4[nH]ccc4c3)cc2[N+](=O)[O-])O1` [Example 2-105, (S)-2-((1H-pyrrolo[2,3-b]pyridin-5-yl)oxy)-4-(4-((4′-chloro-5,5-dimethyl-3,4,5,6-tetra-hydro-[1,1′-biphenyl]-2-yl)methyl)piperazin-1-yl)-N-((2-methyl-5-nitro-3,4-dihydro-2H-benzo[b][1,4]oxazin-7-yl)sulfonyl)benza-mide], the half-inhibitory concentration (IC50) in test [1] (Homo sapiens, RS4-11, 72 h) turned out to be 35 nM; in test [2] (Homo sapiens, DOHH-2, 120 h), 51 nM.

Regarding `CC1(C)CCC(CN2CCN(c3ccc(C(=O)NS(=O)(=O)c4cc5c(c([N+](=O)[O-])c4)N[C@H](CN=S4(=O)CCCC4)CO5)c(Oc4cnc5[nH]ccc5c4)c3)CC2)=C(c2ccc(Cl)cc2)C1` [Example 2-71, (R)-2-((1H-pyrrolo[2,3-b]pyridin-5-yl)oxy)-4-(4-((4′-chloro-5,5-dimethyl-3,4,5,6-tetra-hydro-[1,1′-biphenyl]-2-yl)methyl)piperazin-1-yl)-N-((5-nitro-3-(((1-oxidotetrahydro-1λ^6-thiophen-1-ylidene)amino)methyl)-3,4-dihydro-2H-benzo[b][1,4]oxazin-7-yl)sulfo-nyl)benzamide], the 50% inhibitory concentration (IC50) in test [1] (Homo sapiens, RS4-11, 72 h) was 58 nM; in test [2] (Homo sapiens, DOHH-2, 120 h), 43 nM.

With `CC1(C)CCC(CN2CCN(c3ccc(C(=O)NS(=O)(=O)c4cc5c(c([N+](=O)[O-])c4)N[C@H](C4CCC(O)CC4)CO5)c(Oc4cnc5[nH]ccc5c4)c3)CC2)=C(c2ccc(Cl)cc2)C1` (single isomer, unassigned) [Example 2-240B], the IC50 in test [1] and in test [2] was 1 nM each time.

Turning to `CC1(C)CCC(CN2CCN(c3ccc(C(=O)NS(=O)(=O)c4cc5c(c([N+](=O)[O-])c4)N[C@H](CN=S(C)(C)=O)CO5)c(Oc4cnc5[nH]ccc5c4)c3)CC2)=C(c2ccc(Cl)cc2)C1` [Example 2-70, (R)-2-((1H-pyrrolo[2,3-b]pyridin-5-yl)oxy)-4-(4-((4′-chloro-5,5-dimethyl-3,4,5,6-tetra-hydro-[1,1′-biphenyl]-2-yl)methyl)piperazin-1-yl)-N-((3-(((dimethyl(oxo)-λ^6-sulfanyl-idene)amino)methyl)-5-nitro-3,4-dihydro-2H-benzo[b][1,4]oxazin-7-yl)sulfonyl)benza-mide], the half-maximal inhibitory concentration (IC50) in test [1] (Homo sapiens, RS4-11, 72 h) was determined as 5 nM; in test [2] (Homo sapiens, DOHH-2, 120 h), 28 nM.

For the origin of these results see patent US11091478B2 (Fochon Pharmaceuticals, Ltd., priority 2017, dated 2021).
